The values below come from ChEMBL document CHEMBL5316281, “Trojan Horse Siderophore Conjugates Induce Pseudomonas aeruginosa Suicide and Qualify the TonB Protein as a Novel Antibiotic Target” (2023).

By MIC is commonly meant the smallest concentration in the dilution series that meets the test's criterion for growth inhibition.

Activity calls are given as the source filed them. Where a SMILES comes first, the peptide text is derived from it. [ ]: non-standard residue; d: D form. The star is where a group is joined. X6 = CC(=O)Oc1cccc(C(=O)NCc2cc(CNC(=O)c3cccc(OC(C)=O)c3OC(C)=O)c(NC(=O)CCCc3cn(CCOCCOCCOCCOCCOCCOCCOCCOCCNC(=O)COCC(=O)*)nn3)c(CNC(=O)c3cccc(OC(C)=O)c3OC(C)=O)c2)c1OC(C)=O; X1 = O=C(COCC(=O)*)NCCOCCOCCOCCOCCOCCOCCOCCOCCn1cc(CCCC(=O)Nc2c(CNC(=O)c3cccc(O)c3O)cc(CNC(=O)c3cccc(O)c3O)cc2CNC(=O)c2cccc(O)c2O)nn1; X5 = O=C(CCSSCCC(=O)*)NCCOCCOCCOCCOCCOCCn1cc(CCCC(=O)Nc2c(CNC(=O)c3cccc(O)c3O)cc(CNC(=O)c3cccc(O)c3O)cc2CNC(=O)c2cccc(O)c2O)nn1; Benzoyl(2,3-diOH) = O=C(c1cccc(O)c1O)*

For assay [1], the system named is Pseudomonas aeruginosa. Put plainly: Antimicrobial activity against Pseudomonas aeruginosa harboring deltapvdF-deltapchA mutant assessed as inhibition of bacterial growth by measuring minimal inhibitory concentration incubated for 24 hrs in presence of iron-depleted CAA medium. Type of assay: functional.
Assay [2] relates to Pseudomonas aeruginosa. As to the kind of experiment: Antimicrobial activity against Pseudomonas aeruginosa harboring deltapvdF-deltapchA mutant assessed as inhibition of bacterial growth by measuring minimal inhibitory concentration incubated for 48 hrs in presence of iron-depleted CAA medium. The class given is functional.
For assay [3], the system named is Pseudomonas aeruginosa. As to the kind of experiment: Antimicrobial activity against Pseudomonas aeruginosa PAO1 assessed as inhibition of bacterial growth in presence of iron-depleted CAA medium. Type of assay: functional, organism-based.

Consider `CC[C@H](C)[C@H](NC(=O)[C@@H](N)C(C)C)C(=O)N[C@@H](CCC(=O)O)C(=O)N[C@@H](CC(C)C)C(=O)NCC(=O)N[C@@H](CCC(=O)O)C(=O)N[C@@H](CCC(N)=O)C(=O)N[C@H](C(=O)N[C@H](C(=O)N[C@H](C(=O)N[C@@H](C)C(=O)N[C@H](C(=O)N[C@@H](C)C(=O)N[C@@H](CCC(N)=O)C(=O)N[C@@H](CCC(=O)O)C(=O)N[C@@H](CCC(=O)O)C(=O)N[C@H](C(=O)N[C@@H](CCCCN)C(=O)N[C@@H](CCC(N)=O)C(=O)N[C@@H](CCCCNC(=O)CCSSCCC(=O)NCCOCCOCCOCCOCCOCCn1cc(CCCC(=O)Nc2c(CNC(=O)c3cccc(O)c3O)cc(CNC(=O)c3cccc(O)c3O)cc2CNC(=O)c2cccc(O)c2O)nn1)C(N)=O)[C@@H](C)O)[C@@H](C)O)C(C)C)C(C)C)[C@@H](C)O` (H-VIELGEQTVVATAQEETKQK(X5)-NH2), for which the MIC in the assay with Pseudomonas aeruginosa [1] and in the assay with Pseudomonas aeruginosa [2] was > 64 µM each time. The result in the assay on Pseudomonas aeruginosa [3] was inactive.

For the compound `CC(C)[C@H](NC(=O)[C@@H](NC(=O)[C@@H](NC(=O)[C@H](CCC(N)=O)NC(=O)[C@H](CCC(=O)O)NC(=O)COCC(=O)NCCOCCOCCOCCOCCOCCOCCOCCOCCn1cc(CCCC(=O)Nc2c(CNC(=O)c3cccc(O)c3O)cc(CNC(=O)c3cccc(O)c3O)cc2CNC(=O)c2cccc(O)c2O)nn1)[C@@H](C)O)C(C)C)C(=O)N[C@@H](C)C(=O)N[C@H](C(=O)N[C@@H](C)C(=O)N[C@@H](CCC(N)=O)C(=O)N[C@@H](CCCCN)C(N)=O)[C@@H](C)O` (X1-EQTVVATAQK-NH2), the MIC in the assay with Pseudomonas aeruginosa [1] and in the assay with Pseudomonas aeruginosa [2] was > 64 µM throughout. Moreover, in the assay with Pseudomonas aeruginosa [3], the result was inactive.

As to `CC[C@@H](C)[C@@H](NC(=O)[C@H](NC(=O)c1cccc(O)c1O)C(C)C)C(=O)N[C@H](CCC(=O)O)C(=O)N[C@H](CC(C)C)C(=O)NCC(=O)N[C@H](CCC(=O)O)C(=O)N[C@H](CCC(N)=O)C(=O)N[C@@H](C(=O)N[C@@H](C(=O)N[C@@H](C(=O)N[C@H](C)C(=O)N[C@@H](C(=O)N[C@H](C)C(=O)N[C@H](CCC(N)=O)C(=O)N[C@H](CCC(=O)O)C(=O)N[C@H](CCC(=O)O)C(=O)N[C@@H](C(=O)N[C@H](CCCCN)C(=O)N[C@H](CCC(N)=O)C(=O)N[C@H](CCCCN)C(N)=O)[C@H](C)O)[C@H](C)O)C(C)C)C(C)C)[C@H](C)O` ({Benzoyl(2,3-diOH)}-[dV][dI][dE][dL]G[dE][dQ][dT][dV][dV][dA][dT][dA][dQ][dE][dE][dT][dK][dQ][dK]-NH2), the MIC in the assay on Pseudomonas aeruginosa [1] and in the assay with Pseudomonas aeruginosa [2] was > 64 µM in each case. Moreover, the result with Pseudomonas aeruginosa [3] was inactive.

On to `CC[C@H](C)[C@H](NC(=O)[C@@H](N)C(C)C)C(=O)N[C@@H](CCC(=O)O)C(=O)N[C@@H](CC(C)C)C(=O)NCC(=O)N[C@@H](CCC(=O)O)C(=O)N[C@@H](CCC(N)=O)C(=O)N[C@H](C(=O)N[C@H](C(=O)N[C@H](C(=O)N[C@@H](C)C(=O)N[C@H](C(=O)N[C@@H](C)C(=O)N[C@@H](CCC(N)=O)C(=O)N[C@@H](CCC(=O)O)C(=O)N[C@@H](CCC(=O)O)C(=O)N[C@H](C(=O)N[C@@H](CCCCN)C(=O)N[C@@H](CCC(N)=O)C(=O)N[C@@H](CCCCNC(=O)c1cccc(O)c1O)C(N)=O)[C@@H](C)O)[C@@H](C)O)C(C)C)C(C)C)[C@@H](C)O` (H-VIELGEQTVVATAQEETKQK(Benzoyl(2,3-diOH))-NH2), for which the MIC in the assay on Pseudomonas aeruginosa [1] and in the assay on Pseudomonas aeruginosa [2] was > 64 µM throughout. Moreover, the result with Pseudomonas aeruginosa [3] was inactive.

As for `CC[C@H](C)[C@H](NC(=O)[C@H](CCSC)NC(=O)[C@@H](NC(=O)[C@H](C)NC(=O)CNC(=O)[C@H](CC(C)C)NC(=O)[C@H](CC(=O)O)NC(=O)[C@@H](NC(=O)COCC(=O)NCCOCCOCCOCCOCCOCCOCCOCCOCCn1cc(CCCC(=O)Nc2c(CNC(=O)c3cccc(O)c3O)cc(CNC(=O)c3cccc(O)c3O)cc2CNC(=O)c2cccc(O)c2O)nn1)C(C)C)[C@@H](C)O)C(=O)N[C@H](C(=O)N[C@@H](CO)C(=O)N[C@@H](CC(N)=O)C(=O)N[C@@H](CCCCN)C(N)=O)[C@@H](C)O` (X1-VDLGATMITSNK-NH2), the MIC in the assay with Pseudomonas aeruginosa [1] and with Pseudomonas aeruginosa [2] was > 64 µM in each case. Also, the result with Pseudomonas aeruginosa [3] was inactive.

As for `CSCC[C@H](NC(=O)[C@H](CCC(N)=O)NC(=O)[C@@H](NC(=O)[C@H](CC(C)C)NC(=O)[C@H](CC(=O)O)NC(=O)[C@H](CC(=O)O)NC(=O)COCC(=O)NCCOCCOCCOCCOCCOCCOCCOCCOCCn1cc(CCCC(=O)Nc2c(CNC(=O)c3cccc(O)c3O)cc(CNC(=O)c3cccc(O)c3O)cc2CNC(=O)c2cccc(O)c2O)nn1)C(C)C)C(=O)N[C@@H](CO)C(=O)N1CCC[C@H]1C(=O)N[C@@H](CO)C(=O)N[C@H](C(=O)N[C@@H](CCCCN)C(N)=O)C(C)C` (X1-DDLVQMSPSVK-NH2), the MIC in the assay with Pseudomonas aeruginosa [1] and with Pseudomonas aeruginosa [2] was > 64 µM in each case. Moreover, the outcome with Pseudomonas aeruginosa [3] was inactive.

Regarding `CC[C@H](C)[C@H](NC(=O)[C@H](CCSC)NC(=O)[C@@H](NC(=O)[C@H](C)NC(=O)CNC(=O)[C@H](CC(C)C)NC(=O)[C@H](CC(=O)O)NC(=O)[C@@H](NC(=O)[C@H](CO)NC(=O)[C@H](CO)NC(=O)[C@@H](N)CC(=O)O)C(C)C)[C@@H](C)O)C(=O)N[C@H](C(=O)N[C@@H](CO)C(=O)N[C@@H](CC(N)=O)C(=O)N[C@@H](CCC(N)=O)C(=O)N[C@@H](CC(C)C)C(=O)NCC(=O)N[C@H](C(=O)N[C@H](C(=O)N[C@@H](CCCCNC(=O)c1cccc(O)c1O)C(N)=O)[C@@H](C)CC)[C@@H](C)O)[C@@H](C)O` (H-DSSVDLGATMITSNQLGTIK(Benzoyl(2,3-diOH))-NH2), the MIC with Pseudomonas aeruginosa [1] and in the assay on Pseudomonas aeruginosa [2] was > 64 µM each time. Further, the result with Pseudomonas aeruginosa [3] was inactive.

Consider `CN[C@@H]1[C@@H](O)[C@@H](O[C@@H]2[C@@H](O)[C@H](O[C@H]3O[C@H](C(C)N)CC[C@H]3N)[C@@H](N)C[C@H]2N)OC[C@]1(C)O` (stereo not given in full) [GENTAMICIN C2], for which the MIC in the assay with Pseudomonas aeruginosa [1] is 1 µM; in the assay with Pseudomonas aeruginosa [2], 4 µM. The result with Pseudomonas aeruginosa [3] was inactive.

For `CC[C@H](C)[C@H](NC(=O)[C@@H](N)C(C)C)C(=O)N[C@@H](CCC(=O)O)C(=O)N[C@@H](CC(C)C)C(=O)NCC(=O)N[C@@H](CCC(=O)O)C(=O)N[C@@H](CCC(N)=O)C(=O)N[C@H](C(=O)N[C@H](C(=O)N[C@H](C(=O)N[C@@H](C)C(=O)N[C@H](C(=O)N[C@@H](C)C(=O)N[C@@H](CCC(N)=O)C(=O)N[C@@H](CCC(=O)O)C(=O)N[C@@H](CCC(=O)O)C(=O)N[C@H](C(=O)N[C@@H](CCCCN)C(=O)N[C@@H](CCC(N)=O)C(=O)N[C@@H](CCCCNC(=O)COCC(=O)NCCOCCOCCOCCOCCOCCOCCOCCOCCn1cc(CCCC(=O)Nc2c(CNC(=O)c3cccc(OC(C)=O)c3OC(C)=O)cc(CNC(=O)c3cccc(OC(C)=O)c3OC(C)=O)cc2CNC(=O)c2cccc(OC(C)=O)c2OC(C)=O)nn1)C(N)=O)[C@@H](C)O)[C@@H](C)O)C(C)C)C(C)C)[C@@H](C)O` (H-VIELGEQTVVATAQEETKQK(X6)-NH2), the MIC in the assay on Pseudomonas aeruginosa [1] and in the assay with Pseudomonas aeruginosa [2] was > 64 µM each time. Moreover, the outcome in the assay on Pseudomonas aeruginosa [3] was inactive.

As for `CC[C@H](C)[C@H](NC(=O)[C@H](CCSC)NC(=O)[C@@H](NC(=O)[C@H](C)NC(=O)CNC(=O)[C@H](CC(C)C)NC(=O)[C@H](CC(=O)O)NC(=O)[C@@H](NC(=O)[C@H](CO)NC(=O)[C@H](CO)NC(=O)[C@H](CC(=O)O)NC(=O)c1cccc(O)c1O)C(C)C)[C@@H](C)O)C(=O)N[C@H](C(=O)N[C@@H](CO)C(=O)N[C@@H](CC(N)=O)C(=O)N[C@@H](CCC(N)=O)C(=O)N[C@@H](CC(C)C)C(=O)NCC(=O)N[C@H](C(=O)N[C@H](C(=O)N[C@@H](CCCCN)C(N)=O)[C@@H](C)CC)[C@@H](C)O)[C@@H](C)O`, the MIC in the assay on Pseudomonas aeruginosa [1] and in the assay on Pseudomonas aeruginosa [2] was > 64 µM each time. Also, the result in the assay with Pseudomonas aeruginosa [3] was inactive.
